Common to all, as to experiment: relative viability (nuclei count vs DMSO), 5 days (fraction); higher = more cells survive
Compound in test [1]: CCOC1=CC=CC=C1N=NC2=C(NN(C2=O)C3=NC(=CS3)C4=CC=CC=C4)C [BAM7] + CS(=O)(=O)N1CCN(Cc2cc3nc(-c4cccc5[nH]ncc45)nc(N4CCOCC4)c3s2)CC1 [Pictilisib] (partner 1 µM)
In outline: (§1)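 Lung cancer cell lines in 1536-well plates were dosed by pin tool the day after seeding, either with one drug alone or with a fixed anchor-drug dose plus five library-drug doses (not always all listed) in √10 steps. After 5 days, cells were fixed and their nuclei stained in one step (final 0.05% Triton X-100, 1% formaldehyde, 1 ug/ml Hoechst), then counted on 4× images. Relative viability is the nuclei count in treated wells divided by that in vehicle wells. Values are medians of duplicate plates.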

Compound in test [2]: CCn1c(-c2nonc2N)nc2c(C#CC(C)(C)O)ncc(OC[C@H]3CCCNC3)c21 + COc1cc2c(Oc3ccc(NC(=O)C4(C(=O)Nc5ccc(F)cc5)CC4)cc3F)ccnc2cc1OCCCN1CCOCC1 [Foretinib] (partner 0.25 µM)
In outline: as §1

Compound in test [3]: CCn1c(-c2nonc2N)nc2c(C#CC(C)(C)O)ncc(OC[C@H]3CCCNC3)c21 + CS(=O)(=O)CCNCc1ccc(-c2ccc3ncnc(Nc4ccc(OCc5cccc(F)c5)c(Cl)c4)c3c2)o1 [Lapatinib] (partner 2 µM)
A digest of the protocol:
as §1

Compound in test [4]: CCn1c(-c2nonc2N)nc2c(C#CC(C)(C)O)ncc(OC[C@H]3CCCNC3)c21 + O=C(CCCCCCC(=O)Nc1ccccc1)NO [Vorinostat] (partner 1 µM)
In outline:
as §1

Data on one cell line can be found in the supplement of paper PMC10307832.

On to UMC-11, for which the relative viability in test [1] (first compound 0.5 µM) was found to be 0.856; in test [1] (first compound 5 µM), 0.897; in test [1] (first compound 15.81 µM), 0.85; in test [1] (first compound 50 µM), 0.892; in test [2] (first compound 0.01 µM), 1.01; in test [2] (first compound 0.03162 µM) it was 1.06. The relative viability in test [2] (first compound 0.1 µM) worked out at 1.01; in test [2] (first compound 0.3162 µM), 0.931; in test [2] (first compound 1 µM), 1.04; in test [3] (first compound 0.01 µM), 1.08; in test [3] (first compound 0.03162 µM), 0.987; in test [3] (first compound 0.1 µM), 0.952. Further, the relative viability in test [3] (first compound 0.3162 µM) is 0.818; in test [3] (first compound 1 µM) it was 1.08; in test [4] (first compound 0.01 µM), 0.423; in test [4] (first compound 0.03162 µM), 0.375; in test [4] (first compound 0.1 µM), 0.357; in test [4] (first compound 0.3162 µM) it was 0.316. Also, in test [4] (first compound 1 µM), the relative viability came to 0.346.
